Substitutions are numbered along the chain they refer to. Several values for one entry are separate records, joined by “and”; a condition that tells them apart may be missing. Equal entries are not always repeated. One block for each compound: values may come before it.
Tests used:
[1] = biological target: T1, wild-type human TRPV6 (hTRPV6) (Homo sapiens, UniProt Q9H1D0); experiment: Whole-cell patch-clamp recording of hTRPV6-mediated currents in HEK 293S cells; assay type: cell-based; details: for TRPV6-mediated current amplitude at −60 mV, normalized to the value in the absence of genistein: WT
T1 construct: Full-length wild-type or mutant human TRPV6 was expressed in HEK 293S cells as described above; expressed in transfected cells; host or cells: HEK 293S GnTI- cells, baculovirus (BacMam) transduction
T1 sequence (Q9H1D0 41-765 limits assumed): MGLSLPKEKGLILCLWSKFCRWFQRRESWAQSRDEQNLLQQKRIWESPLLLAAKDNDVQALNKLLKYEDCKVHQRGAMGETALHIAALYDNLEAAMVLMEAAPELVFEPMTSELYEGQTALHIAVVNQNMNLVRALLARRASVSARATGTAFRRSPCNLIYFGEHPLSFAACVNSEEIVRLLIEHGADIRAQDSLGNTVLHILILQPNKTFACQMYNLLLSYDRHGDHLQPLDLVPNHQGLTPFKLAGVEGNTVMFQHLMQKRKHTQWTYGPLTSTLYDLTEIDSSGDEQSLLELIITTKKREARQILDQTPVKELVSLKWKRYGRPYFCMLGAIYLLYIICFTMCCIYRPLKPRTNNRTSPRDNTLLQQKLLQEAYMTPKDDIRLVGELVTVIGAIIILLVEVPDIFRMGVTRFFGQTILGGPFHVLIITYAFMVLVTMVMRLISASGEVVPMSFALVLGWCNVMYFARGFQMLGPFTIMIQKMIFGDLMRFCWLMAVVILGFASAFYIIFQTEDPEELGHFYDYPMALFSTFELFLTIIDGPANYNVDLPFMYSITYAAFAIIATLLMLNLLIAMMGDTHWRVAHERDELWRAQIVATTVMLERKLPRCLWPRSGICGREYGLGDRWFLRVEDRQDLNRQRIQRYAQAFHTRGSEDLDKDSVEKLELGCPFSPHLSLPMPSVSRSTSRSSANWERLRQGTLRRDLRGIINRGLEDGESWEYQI

[2] = biological target: T1, wild-type human TRPV6 (hTRPV6); experiment: Fura-2-based ratiometric measurement of Ca2+ uptake in hTRPV6-expressing HEK 293S cells; assay type: cell-based; details: for normalized change in F340/F380 (Ca2+ uptake relative to no genistein): WT
[3] = biological target: T2, H582A mutant TRPV6 (Homo sapiens, UniProt Q9H1D0, H622A); experiment: Fura-2-based measurement of Ca2+ uptake, H582A mutant channels; assay type: cell-based; details: for normalized change in F340/F380 (Ca2+ uptake relative to no genistein): H582A
T2 construct: Full-length wild-type or mutant human TRPV6 was expressed in HEK 293S cells as described above; expressed in transfected cells; host or cells: HEK 293S GnTI- cells, baculovirus (BacMam) transduction
T2 sequence (Q9H1D0 41-765 H622A limits assumed): T1 sequence (Q9H1D0 41-765 limits assumed) with H582A

[4] = biological target: T3, H587A mutant TRPV6 (Homo sapiens, UniProt Q9H1D0, H627A); experiment: Fura-2-based measurement of Ca2+ uptake, H587A mutant channels; assay type: cell-based; details: for normalized change in F340/F380 (Ca2+ uptake relative to no genistein): H587A
T3 construct: Full-length wild-type or mutant human TRPV6 was expressed in HEK 293S cells as described above; expressed in transfected cells; host or cells: HEK 293S GnTI- cells, baculovirus (BacMam) transduction
T3 sequence (Q9H1D0 41-765 H627A limits assumed): T1 sequence (Q9H1D0 41-765 limits assumed) with H587A

[5] = biological target: T4, H582A-H587A mutant TRPV6 (Homo sapiens, UniProt Q9H1D0, H622A/H627A); experiment: Fura-2-based measurement of Ca2+ uptake, H582A-H587A mutant channels; assay type: cell-based; details: for normalized change in F340/F380 (Ca2+ uptake relative to no genistein): H582A-H587A
T4 construct: Full-length wild-type or mutant human TRPV6 was expressed in HEK 293S cells as described above; expressed in transfected cells; host or cells: HEK 293S GnTI- cells, baculovirus (BacMam) transduction
T4 sequence (Q9H1D0 41-765 H622A/H627A limits assumed): T1 sequence (Q9H1D0 41-765 limits assumed) with H582A, H587A

[6] = biological target: human TRPV6 (human); experiment: cryo-EM structure; purified hTRPV6 in 150 mM NaCl, 20 mM Tris-HCl pH 8.0, 1 mM βME, 0.01% GDN, 0.001% CHS, with 2 mM genistein; two populations of particles: open (C4, 2.71 Å) and genistein-bound (C1, 2.66 Å)
[7] = Conc 30, individual experiments
[8] = Conc 100, individual experiments
[9] = Conc 300, individual experiments
[10] = Conc 1000, individual experiments
[11] = Conc 3000, individual experiments
[12] = Conc 10, individual experiments
[13] = Conc 10000, individual experiments

Compound: O=c1c(-c2ccc(O)cc2)coc2cc(O)cc(O)c12 [genistein, 4′,5,7-trihydroxyisoflavone]
IC50 [1]: 40.7 ± 2.6 µM
inhibition at 50 µM ([1]; HEK293S, 50 µM genistein, –60 mV membrane potential, mean ± SEM, n = 13, read-out: inhibition of the hTRPV6-mediated current): 54 ± 4%
TRPV6-mediated current amplitude at −60 mV, normalized to the value in the absence of genistein ([1]; Conc 6.25 (µM per Supplementary Fig. 1), individual measurements): 0.8818 and 0.9418 and 0.9228 and 0.9734 and 0.9342 and 0.9778 and 0.9793
TRPV6-mediated current amplitude at −60 mV, normalized to the value in the absence of genistein ([1]; Conc 12.5, individual measurements): 0.8695 and 0.8933 and 0.8898 and 0.8819 and 0.904 and 0.9294 and 0.929
TRPV6-mediated current amplitude at −60 mV, normalized to the value in the absence of genistein ([1]; Conc 25, individual measurements): 0.744 and 0.6559 and 0.7679 and 0.6876 and 0.7485 and 0.5641 and 0.5617
TRPV6-mediated current amplitude at −60 mV, normalized to the value in the absence of genistein ([1]; Conc 50, individual measurements): 0.3726 and 0.4985 and 0.3764 and 0.4722 and 0.3722 (2×)
Hill coefficient nHill, current inhibition ([1]; current amplitude at −60 mV, logistic fit, n = 7): 1.80 and 1.80 ± 0.13
normalized change in F340/F380 (Ca2+ uptake relative to no genistein) ([2]; Conc 10 (µM per Fig. 1c), individual experiments): 0.9427 and 0.8061 and 0.8429
normalized change in F340/F380 (Ca2+ uptake relative to no genistein) [2, 7]: 0.7049 and 0.7764 and 0.7537
normalized change in F340/F380 (Ca2+ uptake relative to no genistein) [2, 8]: 0.5343 and 0.4706 and 0.5414
normalized change in F340/F380 (Ca2+ uptake relative to no genistein) [2, 9]: 0.3064 and 0.3178 and 0.351
normalized change in F340/F380 (Ca2+ uptake relative to no genistein) [2, 10]: 0.1486 and 0.1458 and 0.1663
normalized change in F340/F380 (Ca2+ uptake relative to no genistein) [2, 11]: 0.07643 and 0.09271
IC50 ([2]; wild-type, 10 mM Ca2+ after pre-incubation, mean ± SEM, n = 3, read-out: IC50, inhibition of hTRPV6-mediated Ca2+ uptake): 113 µM
Hill coefficient nHill, inhibition of Ca2+ uptake ([2]; wild-type, n = 3): 0.77 ± 0.02
IC50 [3]: 184 ± 24 µM
Hill coefficient nHill ([3]; H582A mutant, n = 3): 0.73 ± 0.04
normalized change in F340/F380 (Ca2+ uptake relative to no genistein) ([3]; Conc 3, individual experiments): 1.0287 and 0.8943 and 0.9077
normalized change in F340/F380 (Ca2+ uptake relative to no genistein) [3, 12]: 0.885 and 0.8976 and 0.8985
normalized change in F340/F380 (Ca2+ uptake relative to no genistein) [3, 7]: 0.8976 and 0.8451 and 0.809
normalized change in F340/F380 (Ca2+ uptake relative to no genistein) [3, 8]: 0.6519 and 0.7074 and 0.5784
normalized change in F340/F380 (Ca2+ uptake relative to no genistein) [3, 9]: 0.3755 and 0.336 and 0.3944
normalized change in F340/F380 (Ca2+ uptake relative to no genistein) [3, 10]: 0.155 and 0.378 and 0.368
normalized change in F340/F380 (Ca2+ uptake relative to no genistein) [3, 11]: 0.1504 and 0.2134 and 0.1508
IC50 [4]: 267 ± 29 µM
Hill coefficient nHill ([4]; H587A mutant, n = 3): 0.67 ± 0.03
normalized change in F340/F380 (Ca2+ uptake relative to no genistein) [4, 12]: 0.9155 and 0.8981 and 0.9014
normalized change in F340/F380 (Ca2+ uptake relative to no genistein) [4, 7]: 0.7349 and 0.8633 and 0.7848
normalized change in F340/F380 (Ca2+ uptake relative to no genistein) [4, 8]: 0.5614 and 0.5516 and 0.49
normalized change in F340/F380 (Ca2+ uptake relative to no genistein) [4, 9]: 0.505 and 0.498 and 0.5741
normalized change in F340/F380 (Ca2+ uptake relative to no genistein) [4, 10]: 0.2958 and 0.3277 and 0.2981
normalized change in F340/F380 (Ca2+ uptake relative to no genistein) [4, 11]: 0.1683 and 0.1914 and 0.1575
normalized change in F340/F380 (Ca2+ uptake relative to no genistein) [4, 13]: 0.08605 and 0.071 and 0.06959
IC50 [5]: 318 ± 45 µM
Hill coefficient nHill ([5]; H582A-H587A mutant, n = 3): 0.71 ± 0.06
normalized change in F340/F380 (Ca2+ uptake relative to no genistein) [5, 12]: 0.8831 and 0.8274 and 0.7934
normalized change in F340/F380 (Ca2+ uptake relative to no genistein) [5, 7]: 0.9307 and 0.8133 and 0.7372
normalized change in F340/F380 (Ca2+ uptake relative to no genistein) [5, 8]: 0.6996 and 0.5804 and 0.6176
normalized change in F340/F380 (Ca2+ uptake relative to no genistein) [5, 9]: 0.6004 and 0.5392 and 0.6135 and 0.4739
normalized change in F340/F380 (Ca2+ uptake relative to no genistein) [5, 10]: 0.3135 and 0.3303
normalized change in F340/F380 (Ca2+ uptake relative to no genistein) [5, 11]: 0.1423 and 0.1604 and 0.1695
normalized change in F340/F380 (Ca2+ uptake relative to no genistein) [5, 13]: 0.08246 and 0.05437 and 0.05709

stoichiometry N [6]: 4
Compound: human TRPV6 (natural protein)
